Test results taken from PubChem BioAssay (NCI).
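Each compound was tested at five concentrations against cells in 96-well plates for 48 hours. The concentration for 50% growth inhibition is given as GI50. TGI denotes the concentration required for complete inhibition of growth.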

Key:
Assay in all cases: DTP human tumour cell line panel, 48 h
[1] = tested on: 786-0 renal
[2] = tested on: A498 renal
[3] = tested on: A549 NSCLC
[4] = tested on: ACHN renal
[5] = tested on: BT-549 breast
[6] = tested on: CAKI-1 renal
[7] = tested on: CCRF-CEM leukemia
[8] = tested on: DU-145 prostate
[9] = tested on: EKVX NSCLC
[10] = tested on: HCC-2998 colon
[11] = tested on: HCT-116 colon
[12] = tested on: HCT-15 colon
[13] = tested on: HL-60(TB) leukemia
[14] = tested on: HOP-62 NSCLC
[15] = tested on: HOP-92 NSCLC
[16] = tested on: HS 578T breast
[17] = tested on: HT29 colon
[18] = tested on: IGROV1 ovarian
[19] = tested on: K-562 leukemia
[20] = tested on: KM12 colon
[21] = tested on: LOX IMVI melanoma
[22] = tested on: M14 melanoma
[23] = tested on: MALME-3M melanoma
[24] = tested on: MCF7 breast
[25] = tested on: MDA-MB-231 breast
[26] = tested on: MDA-MB-435
[27] = tested on: MOLT-4 leukemia
[28] = tested on: NCI-H226 lung
[29] = tested on: NCI-H23 lung
[30] = tested on: NCI-H460 lung
[31] = tested on: NCI-H522 lung
[32] = tested on: NCI/ADR-RES ovarian
[33] = tested on: OVCAR-4 ovarian
[34] = tested on: OVCAR-5 ovarian
[35] = tested on: OVCAR-8 ovarian
[36] = tested on: PC-3 prostate
[37] = tested on: RPMI-8226 leukemia
[38] = tested on: RXF 393 renal
[39] = tested on: SF-268 CNS
[40] = tested on: SF-295 CNS
[41] = tested on: SF-539 CNS
[42] = tested on: SK-MEL-2 melanoma
[43] = tested on: SK-MEL-28 melanoma
[44] = tested on: SK-OV-3 ovarian
[45] = tested on: SN12C renal
[46] = tested on: SNB-19 CNS
[47] = tested on: SR leukemia
[48] = tested on: SW-620 colon
[49] = tested on: T-47D breast
[50] = tested on: TK-10 renal
[51] = tested on: U251 CNS
[52] = tested on: UACC-257 melanoma
[53] = tested on: UACC-62 melanoma
[54] = tested on: UO-31 renal

CC(C)(C)c1cc(NC(=O)Nc2ccc(-c3cn4c5c(sc4n3)CCc3cn(CCCN4CCCCC4)cc3-5)cc2)no1
GI50 [1]: 1.76 µM | TGI [1]: 3.21 µM | GI50 [2]: 1.76 µM | TGI [2]: 3.15 µM | GI50 [3]: 1.83 µM | TGI [3]: 3.47 µM | GI50 [4]: 1.79 µM | TGI [4]: 3.21 µM | GI50 [5]: 1.75 µM | TGI [5]: 3.29 µM | GI50 [6]: 1.64 µM | TGI [6]: 3.12 µM | GI50 [7]: 2.01 µM | TGI [7]: 6.44 µM | GI50 [8]: 1.77 µM | TGI [8]: 3.17 µM | GI50 [9]: 1.79 µM | TGI [9]: 3.23 µM | GI50 [10]: 1.91 µM | TGI [10]: 3.77 µM | GI50 [11]: 1.67 µM | TGI [11]: 3.22 µM | GI50 [12]: 1.66 µM | TGI [12]: 3.3 µM | GI50 [13]: 1.88 µM | TGI [13]: 6.27 µM | GI50 [14]: 1.9 µM | TGI [14]: 3.75 µM | GI50 [15]: 1.42 µM | TGI [15]: 2.82 µM | GI50 [16]: 1.82 µM | TGI [16]: 3.85 µM | GI50 [17]: 1.99 µM | TGI [17]: 3.91 µM | GI50 [18]: 1.96 µM | TGI [18]: 3.82 µM | GI50 [19]: 2.57 µM | TGI [19]: > 100 µM | GI50 [20]: 1.9 µM | TGI [20]: 3.83 µM | GI50 [21]: 1.8 µM | TGI [21]: 3.3 µM | GI50 [22]: 1.71 µM | TGI [22]: 3.15 µM | GI50 [23]: 1.71 µM | TGI [23]: 3.38 µM | GI50 [24]: 1.75 µM | TGI [24]: 3.81 µM | GI50 [25]: 1.95 µM | TGI [25]: 3.73 µM | GI50 [26]: 1.73 µM | TGI [26]: 3.17 µM | GI50 [27]: 1.93 µM | TGI [27]: 6.83 µM | GI50 [28]: > 100 µM | TGI [28]: > 100 µM | GI50 [29]: 1.82 µM | TGI [29]: 3.52 µM | GI50 [30]: 1.8 µM | TGI [30]: 3.64 µM | GI50 [31]: 1.89 µM | TGI [31]: 3.74 µM | GI50 [32]: 2.09 µM | TGI [32]: 4.73 µM | GI50 [33]: 1.78 µM | TGI [33]: 3.59 µM | GI50 [34]: 1.75 µM | TGI [34]: 3.18 µM | GI50 [35]: 2.27 µM | TGI [35]: 5.26 µM | GI50 [36]: 1.71 µM | TGI [36]: 3.23 µM | GI50 [37]: 2.36 µM | TGI [37]: 6.28 µM | GI50 [38]: 1.6 µM | TGI [38]: 3.1 µM | GI50 [39]: 1.81 µM | TGI [39]: 3.89 µM | GI50 [40]: 1.73 µM | TGI [40]: 3.25 µM | GI50 [41]: 1.74 µM | TGI [41]: 3.18 µM | GI50 [42]: > 100 µM | TGI [42]: > 100 µM | GI50 [43]: 1.82 µM | TGI [43]: 3.25 µM | GI50 [44]: 1.72 µM | TGI [44]: 3.28 µM | GI50 [45]: 1.85 µM | TGI [45]: 3.49 µM | GI50 [46]: 1.82 µM | TGI [46]: 3.34 µM | GI50 [47]: 2.13 µM | TGI [47]: 6.77 µM | GI50 [48]: 1.8 µM | TGI [48]: 3.36 µM | GI50 [49]: 1.79 µM | TGI [49]: 3.85 µM | GI50 [50]: 1.82 µM | TGI [50]: 3.27 µM | GI50 [51]: 1.47 µM | TGI [51]: 2.88 µM | GI50 [52]: 1.79 µM | TGI [52]: 3.5 µM | GI50 [53]: > 100 µM | TGI [53]: > 100 µM | GI50 [54]: 1.6 µM | TGI [54]: 3 µM
